According to EP4311580A1, “AMINOACID-FLUORIDE SALTS FOR MOUTH HYGIENE” (Schäfer, Rolf, priority 2022, dated 2024):
Read-outs that look alike come from different tables or passages of the source.

Experiments:
MG-63 osteoblast cells [1] = experiment: Time to confluence of MG-63 osteoblast cells in tissue culture with fluoride compounds in the medium; settings: for Time to confluence / Time to confluence (days): compounds at 1400ppm fluoride in cell growth media, 5x10cm tissue culture flasks, control without fluoride 4-5 days; for effect on osteoblast cells in culture (lysis / influence on growth / toxicity) / inhibition of cell growth: MG-63 osteoblasts; for effect on osteoblast cells in culture (lysis / influence on growth / toxicity): 1400ppm fluoride, result in words; for inhibition of cell growth: 1400ppm fluoride concentration, relative to control
MG-63 osteoblast cells [2] = test system: MG-63 osteoblast cells

Compound	Time to confluence (MG-63 osteoblast cells [1]) [days]	effect on osteoblast cells in culture (lysis / influence on growth / toxicity) (MG-63 osteoblast cells [1])	also measured
CCOC(=O)[C@H](C)N.F.N [Alanine-O-ethylester-ammoniumfluoride]	5 to 6	–	–
CCCCCCCCC=CCCCCCCCCN.F [Dectaflur, 9-octadecenylamine-hydrofluoride, reference compound]	–	lysing (dissolving the membrane) osteoblast cells	Time to confluence (days) (MG-63 osteoblast cells [1]): cell lysis
F.F.N.N.N[C@@H](Cc1c[nH]cn1)C(=O)O [Histidine-ammonium-difluoride]	7 to 8	–	–
CCOC(=O)[C@@H](N)CCCCN [Lysine-O-ethylester-ε-ammoniumdifluoride]	–	–	Time to confluence (MG-63 osteoblast cells [2]): 5 to 6 days
NCCCCC(N)C(=O)O (stereo not shown) [Lysine-ε-ammonium-fluoride]	–	no influence of growth on osteoblasts	inhibition of cell growth (MG-63 osteoblast cells [1]): no inhibition at all; Time to confluence (MG-63 osteoblast cells [2]): 4 to 5 days
CCCCCCCCCCCCCCCCCCN(CCO)CCCN(CCO)CCO [Olaflur, reference compound]	–	lysing (dissolving the membrane) osteoblast cells	Time to confluence (days) (MG-63 osteoblast cells [1]): cell lysis
CCCCCCCCCCCCOS(=O)(=O)[O-].[Na+] [Sodium laurylsulfate (SDS), Sodium laurylsulfate, reference compound]	–	lysing (dissolving the membrane) osteoblast cells	Time to confluence (days) (MG-63 osteoblast cells [2]): cell lysis
NC(Cc1c[nH]c2ccccc12)C(=O)O (stereo not shown) [Tryptophan-N-ammonium-mono-hydrofluoride]	5 to 6	–	–
CCOC(=O)[C@@H](N)Cc1c[nH]c2ccccc12 [Tryptophan-O-ethylester-N,N'-ammoniumdifluoride]	8 to 9	–	–
CCOC(=O)[C@@H](N)Cc1ccc(O)cc1.F.N [Tyrosine-O-ethylester-ammoniumfluoride]	5 to 6	–	–
Decalysine-ε-ammonium-decafluoride	8 to 9	–	inhibition of cell growth (MG-63 osteoblast cells [1]): 40-50%
Potassium fluoride [reference compound]	–	–	Time to confluence (MG-63 osteoblast cells [2]): 6 to 7 days
sodium fluoride [reference compound]	–	–	inhibition of cell growth (MG-63 osteoblast cells [1]): 20%
